# Test results: patent US11053234B2 (GlaxoSmithKline Intellectual Property Development Limited, priority 2016, dated 2021)
# Where a name gives a salt, the structure may show the parent alone.
# Target: T1, haematopoietic prostaglandin D synthase (H-PGDS) (Homo sapiens, UniProt O60760)
# T1 construct: Full length human H-PGDS cDNA (Invitrogen Ultimate ORF 10H13026) was amplified by PCR; 6-His (N); TEV protease cleavage site (N); made in house; host or cells: E. coli BL21 (DE3*), vector pET22b+
# Experiment: H-PGDS RapidFire high throughput mass spectrometry assay (conversion of PGH2 to PGD2)
# Type: biochemical
# Conditions: 10 nM H-PGDS, PGH2 formed in situ by COX-2 from arachidonic acid; read-out: Potency Range (mean pIC50) (converted)
# Summary of the method: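 RapidFire SPE–MS read-out calculated percent conversion from relative PGD2 and PGF2α (substrate surrogate) levels. Recombinant full-length human H-PGDS (His-tag, E. coli) turned over PGH2, produced in situ at ˜10 μM by human COX-2 (FLAG-tag, Sf9 cells) acting on arachidonic acid.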
# T1 sequence (O60760 whole entry): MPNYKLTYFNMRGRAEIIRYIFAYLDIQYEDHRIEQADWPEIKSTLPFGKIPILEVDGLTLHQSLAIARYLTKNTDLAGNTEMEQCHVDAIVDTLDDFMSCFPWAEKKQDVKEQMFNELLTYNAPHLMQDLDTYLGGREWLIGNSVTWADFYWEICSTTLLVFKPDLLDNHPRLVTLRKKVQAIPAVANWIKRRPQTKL
row,Compound,IC50 [nM]
1,"CN(C)C(=O)c1coc(NC(=O)[C@H]2C[C@H](Oc3cccc4cccnc34)C2)n1 [Example 172, N,N-Dimethyl-2-((trans)-3-(quinolin-8-yloxy)cyclobutanecarboxamido)oxazole-4-carboxamide]",10 to 79.4
2,"CC(=O)c1cnc(NC(=O)[C@H]2C[C@H](Oc3cccc4cccnc34)C2)o1 [Example 174, (trans)-N-(5-Acetvloxazol-2-yl)-3-(quinolin-8-yloxy)cyclobutanecarboxamide]",10 to 79.4
3,"Cc1nc(NC(=O)[C@H]2C[C@H](Oc3cccc4cccnc34)C2)oc1C [Example 175, (trans)-N-(4,5-Dimethyloxazol-2-yl)-3-(quinolin-8-yloxy)cyclobutanecarboxamide]",10 to 79.4
4,"CCOC(=O)c1nnc(NC(=O)[C@H]2C[C@H](Oc3cccc4cccnc34)C2)[nH]1 [Example 176, Ethyl 5-((trans)-3-(quinolin-8-yloxy)cyclobutanecarboxamido)-4H-1,2,4-triazole-3-carboxylate]",100 to 1000
5,"Cc1cnc(NC(=O)[C@H]2C[C@H](Oc3cccc4cccnc34)C2)o1 [Example 177, (trans)-N-(5-Methyloxazol-2-yl)-3-(quinolin-8-yloxy)cyclobutanecarboxamide]",10 to 79.4
6,"O=C(Nc1nc(C2CC2)co1)[C@H]1C[C@H](Oc2cccc3cccnc23)C1 [Example 178, (trans)-N-(4-Cyclopropyloxazol-2-yl)-3-(quinolin-8-yloxy)cyclobutanecarboxamide]",10 to 79.4
7,"CC(C)(C)c1nnc(NC(=O)[C@H]2C[C@H](Oc3cccc4cccnc34)C2)o1 [Example 179, (trans)-N-(5-(tert-Butyl)-1,3,4-oxadiazol-2-yl)-3-(quinolin-8-yloxy)cyclobutanecarboxamide]",10 to 79.4
8,"Cc1cccc(NC(=O)[C@H]2C[C@H](Oc3cccc4cccnc34)C2)n1 [Example 181, (trans)-N-(6-Methylpyridin-2-yl)-3-(quinolin-8-yloxy)cyclobutanecarboxamide]",10 to 79.4
9,"C[C@]1(O)CC[C@H](NC(=O)[C@H]2C[C@H](Oc3cccc4cccnc34)C2)CC1 [Example 182, (trans)-N-((trans)-4-Hydroxy-4-methylcyclohexyl)-3-(quinolin-8-yloxy)cyclobutanecarboxamide]",100 to 1000
10,"O=C(Nc1ccccn1)[C@H]1C[C@H](Oc2cccc3cccnc23)C1 [Example 183, (trans)-N-(Pyridin-2-yl)-3-(quinolin-8-yloxy)cyclobutanecarboxamide]",100 to 1000
11,"O=C(Nc1nccs1)[C@H]1C[C@H](Oc2cccc3cccnc23)C1 [Example 184, trans-3-(8-Quinolinyloxy)-N-1,3-thiazol-2-ylcyclobutanecarboxamide]",< 10
12,"CC(C)(O)[C@H]1CC[C@H](NC(=O)N2CC(Oc3cccc4cccnc34)C2)CC1 [Example 185, N-((trans)-4-(2-Hydroxypropan-2-yl)cyclohexyl)-3-(quinolin-8-yloxy)azetidine-1-carboxamide]",10 to 79.4
13,"CC(=O)c1csc(NC(=O)[C@H]2C[C@H](Oc3cccc4cccnc34)C2)n1 [Example 186, trans-N-(4-Acetylthiazol-2-yl)-3-(quinolin-8-yloxy)cyclobutanecarboxamide]",10 to 79.4
14,"N#Cc1csc(NC(=O)[C@H]2C[C@H](Oc3cccc4cccnc34)C2)n1 [Example 188, (trans)-N-(4-Cyanothiazol-2-yl)-3-(quinolin-8-yloxy)cyclobutanecarboxamide, trifluoroacetic acid salt]",< 10
15,"NC(=O)c1csc(NC(=O)[C@H]2C[C@H](Oc3cccc4cccnc34)C2)n1 [Example 189, 2-((trans)-3-(Quinolin-8-yloxy)cyclobutanecarboxamido)thiazole-4-carboxamide, trifluoroacetic acid salt]",10 to 79.4
16,"N#Cc1cnc(NC(=O)[C@H]2C[C@H](Oc3cccc4cccnc34)C2)s1 [Example 190, (trans)-N-(5-Cyanothiazol-2-yl)-3-(quinolin-8-yloxy)cyclobutanecarboxamide]",10 to 79.4
17,"NC(=O)c1cnc(NC(=O)[C@H]2C[C@H](Oc3cccc4cccnc34)C2)s1 [Example 191, 2-((trans)-3-(Quinolin-8-yloxy)cyclobutanecarboxamido)thiazole-5-carboxamide]",10 to 79.4
18,"CCOC(=O)c1csc(NC(=O)[C@H]2C[C@H](Oc3cccc4cccnc34)C2)n1 [Example 192, Ethyl 2-((trans)-3-(quinolin-8-yloxy)cyclobutanecarboxamido)thiazole-4-carboxylate]",< 10
19,"O=C(O)c1csc(NC(=O)[C@H]2C[C@H](Oc3cccc4cccnc34)C2)n1 [Example 193, 2-((trans)-3-(Quinolin-8-yloxy)cyclobutanecarboxamido)thiazole-4-carboxylic acid]",10 to 79.4
20,"O=C(c1csc(NC(=O)[C@H]2C[C@H](Oc3cccc4cccnc34)C2)n1)C1CC1 [Example 194, (trans)-N-(4-(Cyclopropanecarbonyl)thiazol-2-yl)-3-(quinolin-8-yloxy)cyclobutanecarboxamide]",10 to 79.4
21,"CNC(=O)c1csc(NC(=O)[C@H]2C[C@H](Oc3cccc4cccnc34)C2)n1 [Example 196, N-Methyl-2-((trans)-3-(quinolin-8-yloxy)cyclobutanecarboxamido)thiazole-4-carboxamide, trifluoroacetic acid salt]",10 to 79.4
22,"CN(C)C(=O)c1csc(NC(=O)[C@H]2C[C@H](Oc3cccc4cccnc34)C2)n1 [Example 197, N,N-Dimethyl-2-((trans)-3-(quinolin-8-yloxy)cyclobutanecarboxamido)thiazole-4-carboxamide, trifluoroacetic acid salt]",< 10
23,CC(C)c1nnc(NC(=O)[C@H]2C[C@H](Oc3cccc4cccnc34)C2)s1 [Example 198],10 to 79.4
24,"O=C(Nc1nnc(C2CC2)s1)[C@H]1C[C@H](Oc2cccc3cccnc23)C1 [Example 199, (trans)-N-(5-Cyclopropyl-1,3,4-thiadiazol-2-yl)-3-(quinolin-8-yloxy)cyclobutanecarboxamide]",10 to 79.4
25,"CC(C)(O)c1csc(NC(=O)[C@H]2C[C@H](Oc3cccc4cccnc34)C2)n1 [Example 200, (trans)-N-(4-(2-Hydroxypropan-2-yl)thiazol-2-yl)-3-(quinolin-8-yloxy)cyclobutanecarboxamide]",10 to 79.4
26,"O=C(Nc1nc(C(F)(F)F)cs1)[C@H]1C[C@H](Oc2cccc3cccnc23)C1 [Example 201, (trans)-3-(Quinolin-8-yloxy)-N-(4-(trifluoromethyl)thiazol-2-yl)cyclobutanecarboxamide]",10 to 79.4
27,"CC(=O)c1cnc(NC(=O)[C@H]2C[C@H](Oc3cccc4cccnc34)C2)s1 [Example 202, (trans)-N-(5-Acetylthiazol-2-yl)-3-(quinolin-8-yloxy)cyclobutanecarboxamide]",10 to 79.4
28,"Cc1nnc(NC(=O)[C@H]2C[C@H](Oc3cccc4cccnc34)C2)s1 [Example 203, (trans)-N-(5-Methyl-1,3,4-thiadiazol-2-yl)-3-(quinolin-8-yloxy)cyclobutanecarboxamide]",10 to 79.4
29,"CC(C)(O)c1cnc(NC(=O)[C@H]2C[C@H](Oc3cccc4cccnc34)C2)s1 [Example 204, (trans)-N-(5-(2-Hydroxypropan-2-yl)thiazol-2-yl)-3-(quinolin-8-yloxy)cyclobutanecarboxamide]",10 to 79.4
